Data: publication PMC4430599, “Population pharmacokinetics of intravenous and oral panobinostat in patients with hematologic and solid tumors” (European Journal of Clinical Pharmacology, 2015)

Columns and labels:
[1] = Population pharmacokinetic analysis (NONMEM), first final model; assay type: in vivo, patients
Text: (§1) A population PK data set was constructed from 581 patients with advanced hematologic and solid tumors who participated in 14 phase 1 and phase 2 studies of panobinostat (Table 1). Studies A2101 and A2102 used IV panobinostat, whereas all other studies examined oral formulations of panobinostat. The CSF was used in two of the oral panobinostat studies, B2101and B2102, whereas the remaining studies used the FMI formulation. The two phase 1 dose-escalation studies of IV panobinostat used doses of 1.2 to 20 mg/m^2 daily administered under various intermittent regimens. In three phase 1 dose-escalation studies, patients received oral panobinostat at doses ranging from 10 to 80 mg/day (administered weekly on days 1, 3, and 5; or every other week; or on days 1 and 4 every week). In five phase 2 studies, patients with cutaneous T cell lymphoma, chronic myeloid leukemia, and multiple myeloma received 20 mg panobinostat orally per day on days 1, 3, and 5 weekly. In three clinical pharmacology studies, patients received oral panobinostat at 20 mg under various regimens for study-specific purposes: in cycle 1 followed by 20 mg per day (days 1, 3, and 5 weekly) or 45 mg (days 1 and 4 weekly) in subsequent cycles. In a phase 2 study of Hodgkin lymphoma, patients received 40 mg panobinostat on days 1, 3, and 5 weekly.
(§2) PK sampling generally occurred from predose through 48 h after each oral dose or predose through 24 h after each IV dose. Panobinostat was precipitated from plasma samples, evaporated to dryness, reconstituted with 10 % aqueous acetonitrile (containing 0.2 % formic acid), and analyzed by liquid chromatography–tandem mass spectrometry assay. The assay was linear from 0.5 to 500 ng/mL [15], and the bias and coefficient of variation (CV) values of the quality-control sample results ranged from −0.7 to 0.7 % and 2.3 to 11.6 %, respectively. The lower limit of quantification of panobinostat was 0.5 ng/mL for all studies except B2201 and B2203, for which it was 0.1 ng/mL. Values below the lower limit of quantification (6 % of the total) were excluded.
The data sets for modeling were prepared using SAS version 9.2. The time of panobinostat dosing or collection of blood was computed based on the date and time when available. When the date or time was unknown, collection times were estimated based on time of examinations or schedule in the protocol. Demographic information, including age, body weight, height, sex, and race, was collected at screening and used in the analysis. […] BSA (m^2) was computed via the Gehan–George formula as 234.94×Weight^0.515×Height^0.422/10000 where weight is in kilograms and height is in centimeters. […] was computed via the Cockroft–Gault formula as 140−Age×Weight×0.85forfemales/72×Creatinine/88.4 where creatinine was in micromoles per liter.
The model was developed based on the methods described by Wahlby and colleagues. Scatterplots used to visualize the plasma concentration vs. time profile were generated using R version 2.8.1 and SAS version 9.2. PK model building was conducted using the first-order conditional estimation method with INTERACTION (FOCEI) option, using the default three significant digits for convergence, within the software program nonlinear mixed-effect modeling (NONMEM) extended version VI and version VII. Random interindividual variability parameters were estimated using exponential parameterization. The exponential error models ensured that parameter estimates were within reasonable physiological bounds; negative values were not possible. Model selection criteria were based on both objective function values (OFVs), as generated by NONMEM, and graphic diagnostic plots. For each model analyzed, NONMEM calculated the minimum value of the OFV—a statistic that, up to an additive constant, is minus twice the log likelihood of the data. […]

[2] = Population pharmacokinetic analysis (NONMEM), second final model; assay type: in vivo, patients
Text: as §1, §2
The model was developed based on the methods described by Wahlby and colleagues. Scatterplots used to visualize the plasma concentration vs. time profile were generated using R version 2.8.1 and SAS version 9.2. PK model building was conducted using the first-order conditional estimation method with INTERACTION (FOCEI) option, using the default three significant digits for convergence, within the software program nonlinear mixed-effect modeling (NONMEM) extended version VI and version VII. Random interindividual variability parameters were estimated using exponential parameterization. The exponential error models ensured that parameter estimates were within reasonable physiological bounds; negative values were not possible. Model selection criteria were based on both objective function values (OFVs), as generated by NONMEM, and graphic diagnostic plots. For each model analyzed, NONMEM calculated the minimum value of the OFV—a statistic that, up to an additive constant, is minus twice the log likelihood of the data. When two models are nested and the additional parameters of the larger model are not needed, the difference in their minimum OFV is asymptotically χ^2 distributed, with the number of degrees of freedom equal to the number of parameters not common to the two models. The likelihood ratio test compared the two models on the basis of the difference in their OFV values.
PK data from both the IV and oral routes were fitted simultaneously in order to allow for estimation of the oral bioavailability. Several models were explored, including two-compartment and three-compartment models with first-order elimination. […]

[3] = set-up: method as in ref 22 (a number printed in a supplementary file, which may have a reference list of its own: not looked up in the article's list); conditions: second final model; allometric exponent of weight on V2, assumed, no bootstrap; cited from earlier work
[4] = set-up: method as in PMID 16899611; conditions: IV, highest dose administered 14 mg/m^2; refractory hematologic tumors; cited from earlier work
[5] = set-up: method as in ref 17 = [17]; 17. Woo MM, Culver K, Li W, Liu A, Scott J, Parker K, Jalaluddin M, Laird G, Cooper MR, Schran HF (2008) Panobinostat (LBH589) pharmacokinetics (PK): implications for clinical safety and efficacy. Ann; conditions: oral, 60 mg; cited from earlier work
plasma protein = conditions: independent of the drug concentration in plasma; no reference given; cited from earlier work
[6] = set-up: method as in PMID 22864948; conditions: cited from earlier work
[7] = set-up: method as in PMID 25377157; conditions: patients with solid tumors with normal renal function; cited from earlier work
CYP3A4 = system: CYP3A4; set-up: method as in PMID 21706316; conditions: coadministered CYP3A4 inhibitor; cited from earlier work
[8] = set-up: method as in PMID 25939707; conditions: cited from earlier work

Cc1[nH]c2ccccc2c1CCNCc1ccc(/C=C/C(=O)NO)cc1 [panobinostat]
dose proportionality of PK ([1]; dose range of 10 to 80 mg across the 14 studies, CL and V2 related to dose): dose proportional | K23 ([1]; first final model): 1.810 h⁻¹ | K24 ([1]; first final model): 1.424 h⁻¹ | K32 ([1]; first final model): 0.507 h⁻¹ | K42 ([1]; first final model): 0.040 h⁻¹ | interindividual (inter-patient) variability in clearance ([1]; first final model): 74% | OM.CLV2 (Omega 2,1) ([1]; first final model, covariance CL-V2): 0.178 | V2.BSA ([1]; first final model, exponent of (BSA/1.9) on V2): 1.359 | V2.AGE ([1]; first final model, exponent of (age/61) on V2): 0.396 | OM.V2 (Omega 2,2) ([1]; first final model, interindividual variance of V2): 0.334 | V2.ASIAN ([1]; first final model, multiplicative factor on V2, Asian vs Caucasian): 1.373 | V2.BLACK ([1]; first final model, multiplicative factor on V2, black vs Caucasian): 1.241 | V2.OTHER ([1]; first final model, multiplicative factor on V2, other race vs Caucasian): 1.127 | F1 (bioavailability) ([1]; first final model, oral, fraction): 0.214 | CL (clearance) ([1]; first final model, patient with BSA 1.9 m^2): 33.085 L/h | V2 (volume of the central compartment) ([1]; first final model, reference BSA 1.9 m^2, age 61, Caucasian): 24.838 L | clearance ([1]; human, plasma, other: IV and oral routes fitted simultaneously, first final model, patient with BSA 1.9 m^2, read-out: CL (clearance) (converted)): 552 mL/min | half-life ([1]; human, plasma, other: IV and oral routes fitted simultaneously, calculated based on the final parameter estimates, read-out: terminal half-life (converted)): ~37 h | bioavailability ([1]; human, plasma, first final model, oral, read-out: absolute bioavailability): 21.4% | OM.CLV2 (Omega 2,1) ([2]; covariance CL-V2): 0.151 | OM.Q3V3 (Omega 4,3) ([2]; covariance Q3-V3): 0.505 | OM.Q4V4 (Omega 6,5) ([2]; covariance Q4-V4): 0.556 | Q3.AGE ([2]; exponent of (age/61) on Q3): 0.410 | Q4.AGE ([2]; exponent of (age/61) on Q4): 0.212 | V2.AGE ([2]; exponent of (age/61) on V2): -0.005 | V3.AGE ([2]; exponent of (age/61) on V3): 0.713 | V4.AGE ([2]; exponent of (age/61) on V4): 0.530 | bioavailability ([2]; human, plasma, oral, fraction, read-out: F1 (bioavailability)): 19.4% | clearance ([2]; human, plasma, other: intravenous and oral, fitted simultaneously, reference weight 70 kg, age 61, Caucasian): 481 mL/min | OM.Q3 (Omega 3,3) ([2]; interindividual variance of Q3): 0.666 | OM.Q4 (Omega 5,5) ([2]; interindividual variance of Q4): 0.497 | OM.V2 (Omega 2,2) ([2]; interindividual variance of V2): 1.668 | OM.V3 (Omega 4,4) ([2]; interindividual variance of V3): 0.441 | OM.V4 (Omega 6,6) ([2]; interindividual variance of V4): 0.700 | V2.ASIAN ([2]; multiplicative factor on V2, Asian vs Caucasian): 2.060 | V2.BLACK ([2]; multiplicative factor on V2, black vs Caucasian): 1.817 | V2.OTHER ([2]; multiplicative factor on V2, other race vs Caucasian): 0.835 | V3 (peripheral volume) ([2]; reference weight 70 kg, age 61): 71.874 L | V4 (peripheral volume) ([2]; reference weight 70 kg, age 61): 803.193 L | V2 ([2]; reference weight 70 kg, age 61, Caucasian): 30.862 L | V2.WT [3]: 1.000 | maximum concentration (Cmax, mean ± SD) [4]: 565.6 ± 450.9 ng/mL | mean Cmax [5]: 71 ng/mL | plasma protein binding (plasma protein): 90% | number of circulating metabolites [6]: approximately 40 | fraction excreted unchanged in the urine [7]: < 2.5% | panobinostat exposure with ketoconazole (CYP3A4): significant increases | panobinostat exposure with liver impairment [8]: significant increases
